Results on 19 compounds are retold here after PubChem BioAssay AID651630 (Sanford-Burnham Center for Chemical Genomics, 2012).

Active and inactive are the calls of the source.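 Rule for the calls: active = lipid-stain IC50 at or below a set limit, with nuclear-stain toxicity IC50 at least five times higher; inactive = the rest.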 Some results are limits rather than exact numbers.

The test system of one experiment is TAG. As to the kind of experiment: TAG lipid buildup inhibition with viability readout – cell-based, panel, Nile Red and DAPI fluorescence, H9c2, dose response (AID 651630).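 Note: cells exposed to compound overnight before fixation and staining.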 To be noted: H9c2 cells, Nile Red TAG fluorescence, oleic acid.
Another experiment deals with DAPI. The description is as above. To be noted: H9c2 cells, DAPI nuclear fluorescence (cytotoxicity counter-readout), oleic acid.

On to `CNC(=S)NN=C(C)c1ccc(OC)cc1O`, for which the IC50 in the experiment on TAG (mean of runs) was > 25 µM (inactive); in the experiment with TAG (run 1), over 25 µM; with TAG (run 2), over 25 µM. The IC50 cytotoxicity (DAPI nuclear signal decrease) in the experiment with DAPI (mean of runs) is > 25 µM (inactive); in the experiment with DAPI (run 1) it was over 25 µM; in the experiment on DAPI (run 2), over 25 µM.
`COc1ccc(-c2cc(C(F)F)n3ncc(C(=O)Nc4cccc(S(=O)(=O)N5CCOCC5)c4)c3n2)cc1`: the IC50 in the experiment on TAG (mean of runs) was 13.9 µM; with TAG (run 1), 17.5 µM; in the experiment on TAG (run 2), 10.4 µM. For the same compound, the IC50 cytotoxicity (DAPI nuclear signal decrease) was > 25 µM (inactive) with DAPI (mean of runs), over 25 µM with DAPI (run 1) and over 25 µM in the experiment with DAPI (run 2).
For the compound `COc1cc(C2C(C#N)=C(N)Oc3cc4c(cc32)OCO4)cc(OC)c1OC` (configuration not stated), the figures for the IC50 in the experiment with TAG (run 1) and in the experiment with TAG (run 2) were over 25 µM and 3.52 µM, respectively. Also, the IC50 cytotoxicity (DAPI nuclear signal decrease) in the experiment with DAPI (mean of runs) is > 25 µM (inactive); in the experiment with DAPI (run 1), over 25 µM; in the experiment on DAPI (run 2), over 25 µM.
`CC(C)NC(=O)N(C)C[C@H]1Oc2cc(C#Cc3ccc(F)cc3)ccc2S(=O)(=O)N([C@H](C)CO)C[C@H]1C`: the figures for the IC50 with TAG (mean of runs), in the experiment with TAG (run 1) and in the experiment with TAG (run 2) were 8.39 µM, 11 µM and 5.81 µM, respectively. Also, the values for the IC50 cytotoxicity (DAPI nuclear signal decrease) in the experiment with DAPI (mean of runs), in the experiment on DAPI (run 1) and in the experiment on DAPI (run 2) were > 25 µM (inactive), over 25 µM and over 25 µM, respectively.
As to `Cc1c(C(=O)OCC(C)C)[nH]c2c1C(=O)CC(c1cccs1)C2` (configuration not stated), the figures for the IC50 in the experiment on TAG (mean of runs), in the experiment on TAG (run 1) and in the experiment on TAG (run 2) were > 25 µM (inactive), over 25 µM and over 25 µM, respectively. In addition, the IC50 cytotoxicity (DAPI nuclear signal decrease) with DAPI (mean of runs) is > 25 µM (inactive); in the experiment on DAPI (run 1) it was over 25 µM; in the experiment with DAPI (run 2), over 25 µM.
For `CC(C)CCNCC(O)CON=C1c2ccccc2-c2ccccc21` (configuration not stated), the IC50 is > 25 µM (inactive) in the experiment with TAG (mean of runs), over 25 µM in the experiment with TAG (run 1) and over 25 µM in the experiment with TAG (run 2). For the same compound, the values for the IC50 cytotoxicity (DAPI nuclear signal decrease) with DAPI (mean of runs), in the experiment with DAPI (run 1) and in the experiment on DAPI (run 2) were > 25 µM (inactive), over 25 µM and over 25 µM, respectively.
In the case of `COc1cccc(/C=N/NC(=O)CSc2cccc3cccnc23)c1`, the IC50 in the experiment with TAG (mean of runs) was > 25 µM (inactive); in the experiment with TAG (run 1) it was over 25 µM; in the experiment with TAG (run 2) it was over 25 µM. The values for the IC50 cytotoxicity (DAPI nuclear signal decrease) with DAPI (mean of runs), in the experiment on DAPI (run 1) and in the experiment on DAPI (run 2) were > 25 µM (inactive), over 25 µM and over 25 µM, respectively.
For `Cc1cc(N2CCOCC2)n2nc(C)c(-c3ccccc3)c2n1`, the figures for the IC50 with TAG (run 1) and in the experiment on TAG (run 2) were 14.6 µM and over 25 µM, respectively. The IC50 cytotoxicity (DAPI nuclear signal decrease) was > 25 µM (inactive) in the experiment with DAPI (mean of runs), over 25 µM in the experiment on DAPI (run 1) and over 25 µM with DAPI (run 2).
For `CCOc1c(Br)cc(CNC2CCCCCCC2)cc1OC`, the IC50 is > 25 µM (inactive) in the experiment on TAG (mean of runs), over 25 µM with TAG (run 1) and over 25 µM with TAG (run 2). The IC50 cytotoxicity (DAPI nuclear signal decrease) in the experiment on DAPI (mean of runs) was 19.7 µM (inactive); in the experiment with DAPI (run 1), 18.8 µM; with DAPI (run 2) it was 20.6 µM.
For `Cc1ccc(N2C(=O)C3CC(c4ccccc4)=C4C5C=CC(C6C(=O)N(c7ccc(C)cc7C)C(=O)C56)C4C3C2=O)c(C)c1` (configuration not stated), the IC50 in the experiment with TAG (run 1) is 22.3 µM; in the experiment on TAG (run 2) it was over 25 µM. The figures for the IC50 cytotoxicity (DAPI nuclear signal decrease) in the experiment with DAPI (mean of runs), in the experiment with DAPI (run 1) and with DAPI (run 2) were > 25 µM (inactive), over 25 µM and over 25 µM, respectively.
Consider `O=C(CC1C[C@H](C(=O)N2CCOCC2)[C@@]2(CCC3CCCC3)c3[nH]c4ccccc4c3CCN2C1=O)NCC12CC3CC(CC(C3)C1)C2` (some centres not stated), for which the results for the IC50 with TAG (mean of runs), with TAG (run 1) and with TAG (run 2) were > 25 µM (inactive), over 25 µM and over 25 µM, respectively. For the same compound, the values for the IC50 cytotoxicity (DAPI nuclear signal decrease) with DAPI (mean of runs), in the experiment on DAPI (run 1) and in the experiment on DAPI (run 2) were > 25 µM (inactive), over 25 µM and over 25 µM, respectively.
Consider `CCCCCCN(C(=O)CCCCCN1C(=O)NC(c2ccc([N+](=O)[O-])cc2)C(C(=O)OCc2ccccc2)=C1C)C(C(=O)NCCCC)C1CCCCC1` (configuration not stated), for which the IC50 in the experiment with TAG (mean of runs) was 5.66 µM; in the experiment on TAG (run 1), 3.7 µM; in the experiment on TAG (run 2), 7.62 µM. In addition, the IC50 cytotoxicity (DAPI nuclear signal decrease) was > 25 µM (inactive) in the experiment with DAPI (mean of runs), over 25 µM in the experiment with DAPI (run 1) and over 25 µM in the experiment with DAPI (run 2).
Regarding `COc1ccccc1C1C2=C(COC2=O)Nc2cc3c(cc21)OCO3` (configuration not stated), the IC50 with TAG (run 1) was under 0.78 µM; with TAG (run 2), over 25 µM. Moreover, the figures for the IC50 cytotoxicity (DAPI nuclear signal decrease) in the experiment on DAPI (mean of runs), in the experiment on DAPI (run 1) and in the experiment on DAPI (run 2) were > 25 µM (inactive), over 25 µM and over 25 µM, respectively.
For `C=CC[C@@H](CC(=O)N(CCO)Cc1ccccc1)C(=O)N[C@H](COC(=O)[C@@H](CC=C)CC(=O)OC(C)(C)C)C(C)(C)C`, the IC50 with TAG (mean of runs) is 3.39 µM; in the experiment on TAG (run 1), 4.3 µM; in the experiment with TAG (run 2), 2.48 µM. For the same compound, the IC50 cytotoxicity (DAPI nuclear signal decrease) in the experiment with DAPI (run 1) and with DAPI (run 2) was over 25 µM throughout.
On to `CO/N=C\CC(=O)Nc1ccc(Oc2ccccc2)cc1`, for which the concentration for half-maximal inhibition (IC50) with TAG (mean of runs) is 7.97 µM; in the experiment on TAG (run 1), 9.14 µM; in the experiment with TAG (run 2), 6.8 µM. The IC50 cytotoxicity (DAPI nuclear signal decrease) is > 25 µM (inactive) in the experiment with DAPI (mean of runs), over 25 µM in the experiment on DAPI (run 1) and over 25 µM in the experiment on DAPI (run 2).
As to `Cc1cc(Nc2ccc(C)c(Cl)c2)nc(N2CCOCC2)n1`, the results for the IC50 with TAG (mean of runs), in the experiment with TAG (run 1) and with TAG (run 2) were > 25 µM (inactive), over 25 µM and over 25 µM, respectively. Besides, the IC50 cytotoxicity (DAPI nuclear signal decrease) in the experiment with DAPI (mean of runs) is > 25 µM (inactive); with DAPI (run 1), over 25 µM; in the experiment on DAPI (run 2), over 25 µM.
With `CN(C)CCCN1c2ccccc2Sc2ccc3ccccc3c21`, the IC50 with TAG (mean of runs) is > 25 µM (inactive); with TAG (run 1) it was over 25 µM; in the experiment on TAG (run 2), over 25 µM. Also, the IC50 cytotoxicity (DAPI nuclear signal decrease) in the experiment on DAPI (mean of runs) was > 25 µM (inactive); with DAPI (run 1) it was over 25 µM; in the experiment on DAPI (run 2), over 25 µM.
As to `O[C@H]1CN(CC2CCCCC2)[C@@H](c2ccc(Cl)cc2)C[C@@H]1n1cc(-c2ccc(F)cc2)nn1`, the values for the 50% inhibitory concentration (IC50) with TAG (run 1) and in the experiment with TAG (run 2) were 18.5 µM and over 25 µM, respectively. In addition, the IC50 cytotoxicity (DAPI nuclear signal decrease) in the experiment on DAPI (mean of runs) is > 25 µM (inactive); in the experiment with DAPI (run 1) it was over 25 µM; in the experiment on DAPI (run 2), over 25 µM.
In the case of `Cc1cccc(C(=O)N[C@H](C(=O)Nc2ncc(C)s2)C(C)C)c1`, the IC50 in the experiment on TAG (mean of runs) was 9.36 µM; with TAG (run 1), 9.74 µM; with TAG (run 2) it was 8.97 µM. The figures for the IC50 cytotoxicity (DAPI nuclear signal decrease) in the experiment with DAPI (run 1) and with DAPI (run 2) were 22.9 µM and over 25 µM, respectively.
